Experimental data taken from US9562036B2, “Fluoromethyl-substituted pyrrole carboxamides as CaV2.2 calcium channel blockers” (GRÜNENTHAL GMBH, priority 2013, dated 2017).

target: T1, Human CaV2.2 channels (Homo sapiens, UniProt Q00975); assay: Fluorescent assay for CaV2.2 channels using potassium depolarization to induce channel opening (FLIPR, Fluo 4); format: cell-based; conditions: 3 μM test compound; 30 mM KCl alternative assay buffer (inactivated channel state); HEK293 cells; read-out: %-Inhib (CaV2.2) @3 μM @30 mM KCl
T1 construct: expressed in transfected cells; also stably expressing Kir2.3)
From the text: In the process, the Ca^2+ influx is quantified in the FLIPR assay with the aid of a Ca^2+-sensitive dye (type Fluo-4, Molecular Probes Europe BV, Leiden, the Netherlands) in a fluorescent imaging plate reader (FLIPR 3, Molecular Devices, Sunnyvale, USA), as described hereinafter.
2. Assay Descriptions and Biological Data: 2.1 Fluorescent Assay for CaV2.2 Channels Using Potassium Depolarization to Induce Channel Opening
Human CaV2.2 channels were stably expressed in HEK293 cells together with alpha2-delta and beta subunits of voltage gated calcium channels. In addition, an inwardly rectifying potassium channel (Kir2.3) was stably expressed in these cells to augment control of the cell membrane potential by the concentration of extracellular potassium ions. Raise of the extracellular potassium concentration leads to depolarization of the membrane potential and thus regulates the voltage dependent state of CaV2.2 channels. For preparation, cells were seeded in black poly-D-lysine coated 96-well plates (Becton Dickinson, Biocoat 4640) in 100 μL medium [500 mL DMEM/F-12 plus Glutamax (Invitrogen 31331-093) plus 5.5 mL MEM NEAA 100× (Invitrogen 11140-035) plus 50 mL FBS decomplemented (Invitrogen 10270-106) plus 200 μg/mL Geneticin (Invitrogen 10131-027) plus 50 μg/mL Hygromycin B (Invitrogen 10687-010) plus 2 μg/mL Blasticidin (anti-bl5b Invivo-Gen) plus 0.2 μg/mL Puromycin (A 11138-03)] at a cell density of 30.000 cells per well. Plates were incubated at 37° C. (5% CO2) for 20 to 23 h. On the day of experiment medium was discarded and cells were loaded with Fluo 4 by addition of 100 μL of basic assay buffer (10 mM HEPES, 1 mM KCl, 149 mM NaCl, 0.8 mM CaC2, 1.7 mM MgCl2, 10 mM Glucose, 0.1% BSA. pH 7.4) containing 2 μM Fluo 4 (Molecular Probes; F-14201), 0.01% pluronic acid (Molecular Probes; P-6866) and 2.5 mM probenecid (Molecular Probes; P36400). Cells were incubated in the dark at 25° C. for 60 min. Then dye containing buffer was discarded and 100 μL basic (1 mM KCl) or alternative (30 mM KCl) assay buffer was added. The alternative assay buffer contained altered concentrations of KCl (30 mM) and NaCl (120 mM) and was used in order to promote the inactivated channel state. After that 25 μL of basic or alternative assay buffer with or without test compound were added and cells were incubated again in the dark at 25° C. for 15 min. Fluorescence intensity was measured on a FLIPR 3 instrument (Molecular Devices Corp., Sunnyvale, Calif.) with excitation at 480 nm and emission at 535 nm. After continuously reading fluorescence for 30 sec, 50 μL of basic assay buffer containing 210 mM KCl (NaCl omitted) were added for depolarization. Peak fluorescent signal intensity was determined and the amplitude of the peak signal, normalized to base line, was used to measure channel inhibition by test compounds.

T1 sequence (Q00975 whole entry): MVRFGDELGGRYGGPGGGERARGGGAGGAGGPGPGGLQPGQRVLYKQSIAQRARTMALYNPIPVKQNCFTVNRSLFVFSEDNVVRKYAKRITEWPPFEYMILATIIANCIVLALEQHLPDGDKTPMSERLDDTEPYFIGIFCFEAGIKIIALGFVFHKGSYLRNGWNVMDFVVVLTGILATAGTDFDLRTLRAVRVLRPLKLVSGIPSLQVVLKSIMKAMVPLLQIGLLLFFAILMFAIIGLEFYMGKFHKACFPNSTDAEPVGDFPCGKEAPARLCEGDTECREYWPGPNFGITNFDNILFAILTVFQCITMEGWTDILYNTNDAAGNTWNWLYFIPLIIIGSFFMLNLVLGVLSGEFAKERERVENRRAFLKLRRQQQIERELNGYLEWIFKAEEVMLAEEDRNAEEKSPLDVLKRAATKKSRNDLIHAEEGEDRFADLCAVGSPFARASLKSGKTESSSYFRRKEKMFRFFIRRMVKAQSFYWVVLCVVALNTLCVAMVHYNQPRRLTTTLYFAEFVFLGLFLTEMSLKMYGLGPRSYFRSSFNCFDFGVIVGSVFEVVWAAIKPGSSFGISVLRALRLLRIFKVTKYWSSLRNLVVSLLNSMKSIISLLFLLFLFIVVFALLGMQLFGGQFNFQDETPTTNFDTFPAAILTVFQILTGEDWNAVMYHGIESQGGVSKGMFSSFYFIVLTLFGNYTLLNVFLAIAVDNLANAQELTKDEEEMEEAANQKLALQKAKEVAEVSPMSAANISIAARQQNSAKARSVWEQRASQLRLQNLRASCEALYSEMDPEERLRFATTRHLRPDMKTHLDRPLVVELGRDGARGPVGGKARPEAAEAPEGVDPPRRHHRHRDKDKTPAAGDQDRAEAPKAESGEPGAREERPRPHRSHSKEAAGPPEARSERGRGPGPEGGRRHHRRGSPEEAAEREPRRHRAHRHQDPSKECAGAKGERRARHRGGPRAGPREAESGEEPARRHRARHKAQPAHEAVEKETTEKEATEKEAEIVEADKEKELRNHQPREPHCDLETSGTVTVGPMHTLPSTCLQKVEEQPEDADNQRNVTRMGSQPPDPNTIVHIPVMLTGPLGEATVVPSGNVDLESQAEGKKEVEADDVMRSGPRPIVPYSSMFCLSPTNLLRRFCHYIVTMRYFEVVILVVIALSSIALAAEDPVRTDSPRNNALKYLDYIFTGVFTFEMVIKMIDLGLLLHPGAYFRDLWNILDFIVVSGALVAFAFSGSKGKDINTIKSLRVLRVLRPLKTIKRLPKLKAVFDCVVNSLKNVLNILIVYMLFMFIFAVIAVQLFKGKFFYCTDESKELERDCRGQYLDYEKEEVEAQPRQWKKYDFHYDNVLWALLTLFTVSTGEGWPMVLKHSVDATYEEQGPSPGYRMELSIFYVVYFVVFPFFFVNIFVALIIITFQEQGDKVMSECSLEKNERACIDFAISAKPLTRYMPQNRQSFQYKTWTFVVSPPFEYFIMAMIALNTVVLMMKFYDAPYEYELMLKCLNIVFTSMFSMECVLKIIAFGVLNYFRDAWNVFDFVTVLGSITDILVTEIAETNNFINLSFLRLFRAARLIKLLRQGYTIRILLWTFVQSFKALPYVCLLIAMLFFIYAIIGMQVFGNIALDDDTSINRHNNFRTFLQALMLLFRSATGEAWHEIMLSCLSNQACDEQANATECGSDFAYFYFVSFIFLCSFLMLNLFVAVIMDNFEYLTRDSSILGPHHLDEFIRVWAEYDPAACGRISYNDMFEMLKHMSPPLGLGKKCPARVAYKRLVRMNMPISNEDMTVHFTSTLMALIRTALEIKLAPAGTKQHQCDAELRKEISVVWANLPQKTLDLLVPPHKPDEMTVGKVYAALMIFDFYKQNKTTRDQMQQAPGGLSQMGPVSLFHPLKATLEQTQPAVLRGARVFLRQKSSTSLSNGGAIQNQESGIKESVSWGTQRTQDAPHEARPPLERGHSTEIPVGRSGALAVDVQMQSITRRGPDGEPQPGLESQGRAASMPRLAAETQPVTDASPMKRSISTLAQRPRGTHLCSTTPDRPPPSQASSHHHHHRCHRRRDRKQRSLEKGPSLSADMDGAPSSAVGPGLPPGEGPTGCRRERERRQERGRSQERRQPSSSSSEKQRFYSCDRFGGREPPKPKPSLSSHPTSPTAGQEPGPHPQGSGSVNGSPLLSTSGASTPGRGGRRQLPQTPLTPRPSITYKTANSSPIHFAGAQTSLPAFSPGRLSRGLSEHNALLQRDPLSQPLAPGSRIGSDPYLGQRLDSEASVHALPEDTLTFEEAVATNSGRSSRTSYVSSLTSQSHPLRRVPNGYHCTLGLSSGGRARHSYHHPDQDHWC

**Q.** How did the inhibition at 3 µM turn out when `Cc1c(-c2ncc(Cl)cn2)c(C(=O)N(C)CC(C)(C)C#N)n(Cc2ccccc2)c1C(F)(F)F` [Example 49, 1-Benzyl-3-(5-chloro-pyrimidin-2-yl)-N-(2-cyano-2-methyl-propyl)-N,4-dimethyl-5-(trifluoromethyl)-1H-pyrrole-2-carboxylic acid amide] was run?
**A.** > 95%

**Q.** How did the inhibition at 3 µM turn out when `Cc1c(-c2ncc(Cl)cc2[S+](C)[O-])c(C(=O)N(C)C(C)C)n(Cc2ccccc2)c1C(F)(F)F` (centres unmarked) [Example 61, 1-Benzyl-3-[5-chloro-3-(methylsulfinyl)-pyridin-2-yl]-N-isopropyl-N,4-dimethyl-5-(trifluoromethyl)-1H-pyrrole-2-carboxylic acid amide] was run?
**A.** 75 to 95%

**Q.** Which inhibition at 3 µM does the source give for `Cc1c(-c2ccc(Cl)s2)c(C(=O)N(C)CC(C)(C)C)n(Cc2ccccc2)c1C(F)(F)F` [Example 13, 1-Benzyl-3-(5-chloro-thiophen-2-yl)-N-(2,2-dimethyl-propyl)-N,4-dimethyl-5-(trifluoromethyl)-1H-pyrrole-2-carboxylic acid amide] here?
**A.** 75 to 95%

**Q.** Which inhibition at 3 µM does the source give for `Cc1c(-c2ccc(Cl)cn2)c(C(=O)N(C)C(C)C)n(Cc2ccccc2)c1C(F)(F)F` [Example 50, 1-Benzyl-3-(5-chloro-pyridin-2-yl)-N-isopropyl-N,4-dimethyl-5-(trifluoromethyl)-1H-pyrrole-2-carboxylic acid amide] here?
**A.** > 95%

**Q.** With `Cc1cc(C#N)ncc1-c1c(C)c(C(F)(F)F)n(Cc2ccccc2)c1C(=O)N1CCOCC1` [Example 26, 5-[1-Benzyl-4-methyl-2-(morpholine-4-carbonyl)-5-(trifluoromethyl)-1H-pyrrol-3-yl]-4-methyl-pyridine-2-carbonitrile] as the compound, how does the inhibition at 3 µM read?
**A.** 75 to 95%
